Experimental data from PubChem BioAssay AID256 (DTP/NCI, 2004).
Several values for one entry are separate records, joined by “and”; a condition that tells them apart may be missing. Equal entries are not always repeated. Toxic doses and inconclusive results are not listed. How the source made its calls: active means survival T/C of 150% or more; inactive means T/C below 125% in these data.

Test system: CD2F1 mice, L1210 leukemia ip, survival T/C
Test: NCI In Vivo Anticancer Drug Screen. Data for tumor model L1210 Leukemia (intraperitoneal) in CD2F1 (CDF1) mice
Conditions: endpoint: mean survival time, higher = longer survival
Outline: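 Ratio T/C, where T is the treated-group value and C the vehicle-dosed control value, from mice implanted with a transplantable tumor.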

[1] = dose: 50.0 mg/kg/injection, schedule: Q01DX009 (ip), vehicle: saline with Tween-80
[2] = dose: 200.0 mg/kg/injection, schedule: Q04DX003 (ip), vehicle: saline sonified
[3] = dose: 200.0 mg/kg/injection, schedule: Q04DX003 (ip), vehicle: saline with Tween-80
[4] = dose: 400.0 mg/kg/injection, schedule: Q04DX003 (ip), vehicle: saline with Tween-80
[5] = dose: 100.0 mg/kg/injection, schedule: Q04DX003 (ip), vehicle: saline with Tween-80

Measured: T/C

CCCCCC(=O)C(C)C(C)C (configuration not stated)
inactive: [1] 97 % of control | dose: 100.0 mg/kg/injection, schedule: Q01DX009 (ip), vehicle: saline with Tween-80 97 % of control | dose: 200.0 mg/kg/injection, schedule: Q01DX009 (ip), vehicle: saline with Tween-80 97 % of control

C=C1C(O)CC2CC1C2(C)C (configuration not stated)
inactive: [1] 98 % of control

O=c1ccnc[nH]1
inactive: dose: 100.0 mg/kg/injection, schedule: Q04DX003 (ip), vehicle: saline sonified 93 % of control | [2] 104 % of control | dose: 400.0 mg/kg/injection, schedule: Q04DX003 (ip), vehicle: saline sonified 104 % of control

Cc1cc(C)c(C(C)(C)O)c(C)c1
inactive: [3] 98 % of control | [4] 106 % of control

C[NH-].C[NH-].[Br][Pt][Br].[CH3-].[CH3-]
inactive: dose: 1.56 mg/kg/injection, schedule: Q04DX003 (ip), vehicle: saline with Tween-80 97 % of control | dose: 3.13 mg/kg/injection, schedule: Q04DX003 (ip), vehicle: saline with Tween-80 97 % of control | dose: 6.25 mg/kg/injection, schedule: Q04DX003 (ip), vehicle: saline with Tween-80 104 % of control | dose: 12.5 mg/kg/injection, schedule: Q04DX003 (ip), vehicle: saline with Tween-80 93 % of control | dose: 25.0 mg/kg/injection, schedule: Q04DX003 (ip), vehicle: saline with Tween-80 89 % of control and 93 % of control | dose: 50.0 mg/kg/injection, schedule: Q04DX003 (ip), vehicle: saline with Tween-80 102 % of control | [5] 100 % of control | [3] 98 % of control | [4] 94 % of control

COc1ccc(OCc2ccc(OC)c(OC)c2)cc1
inactive: dose: 100.0 mg/kg/injection, schedule: Q04DX002 (ip), vehicle: saline with Tween-80 91 % of control | dose: 200.0 mg/kg/injection, schedule: Q04DX002 (ip), vehicle: saline with Tween-80 87 % of control | dose: 400.0 mg/kg/injection, schedule: Q04DX002 (ip), vehicle: saline with Tween-80 91 % of control

O=NN1CC2CCC1CC2
inactive: dose: 5.0 mg/kg/injection, schedule: Q01DX001 (ip), vehicle: saline with Tween-80 98 % of control | dose: 10.0 mg/kg/injection, schedule: Q01DX001 (ip), vehicle: saline with Tween-80 101 % of control

COC(=O)c1cc(NC(C)=O)ccc1S(=O)(=O)c1ccc(NC(C)=O)cc1C(=O)OC
inactive: [5] 101 % of control | [3] 101 % of control | [4] 97 % of control

Cn1c(=O)c2c(nc(NCCOC(=S)S)n2C)n(C)c1=O
inactive: dose: 12.5 mg/kg/injection, schedule: Q01DX005 (ip), vehicle: distilled water + Tween-80 94 % of control | dose: 25.0 mg/kg/injection, schedule: Q01DX005 (ip), vehicle: distilled water + Tween-80 91 % of control | dose: 50.0 mg/kg/injection, schedule: Q01DX005 (ip), vehicle: distilled water + Tween-80 100 % of control

CCOC(=O)/C(C#N)=C\c1cc([N+](=O)[O-])ccc1Cl
inactive: [5] 89 % of control | [3] 108 % of control | [4] 108 % of control

O.O=C(O)CN(CCN(CC(=O)O)CC(=O)O)CC(=O)O.[Rh+2]
inactive: dose: 100.0 mg/kg/injection, schedule: Q01DX009 (ip), vehicle: saline 100 % of control | dose: 200.0 mg/kg/injection, schedule: Q01DX009 (ip), vehicle: saline 94 % of control | [2] 95 % of control | dose: 400.0 mg/kg/injection, schedule: Q01DX009 (ip), vehicle: saline 96 % of control

CCOC(=O)CSc1ccccc1
inactive: dose: 25.0 mg/kg/injection, schedule: Q01DX005 (ip), vehicle: Klucel (hydroxypropylcellulose) (HPC) 93 % of control | dose: 50.0 mg/kg/injection, schedule: Q01DX005 (ip), vehicle: Klucel (hydroxypropylcellulose) (HPC) 95 % of control | dose: 100.0 mg/kg/injection, schedule: Q01DX001 (ip), vehicle: saline 102 % of control | dose: 100.0 mg/kg/injection, schedule: Q01DX005 (ip), vehicle: Klucel (hydroxypropylcellulose) (HPC) 102 % of control | dose: 200.0 mg/kg/injection, schedule: Q01DX001 (ip), vehicle: saline 100 % of control | dose: 200.0 mg/kg/injection, schedule: Q01DX005 (ip), vehicle: Klucel (hydroxypropylcellulose) (HPC) 95 % of control | dose: 400.0 mg/kg/injection, schedule: Q01DX001 (ip), vehicle: saline 100 % of control | dose: 400.0 mg/kg/injection, schedule: Q01DX005 (ip), vehicle: Klucel (hydroxypropylcellulose) (HPC) 95 % of control

COc1cccc(NC(=O)NC2C(OC(C)=O)OC(COC(C)=O)C(OC(C)=O)C2OC(C)=O)c1 (configuration not stated)
inactive: dose: 12.5 mg/kg/injection, schedule: Q01DX009 (ip), vehicle: other 98 % of control | dose: 25.0 mg/kg/injection, schedule: Q01DX009 (ip), vehicle: other 98 % of control | dose: 50.0 mg/kg/injection, schedule: Q01DX009 (ip), vehicle: other 90 % of control | dose: 100.0 mg/kg/injection, schedule: Q01DX009 (ip), vehicle: other 90 % of control | dose: 200.0 mg/kg/injection, schedule: Q01DX009 (ip), vehicle: other 96 % of control

CCOC(=O)c1cc(-c2ccc3ccccc3n2)c(O)c2cc3ccccc3nc12
inactive: [5] 93 % of control | [3] 87 % of control | [4] 90 % of control
